# Results published in publication PMC8968713, “Displacement of Native FXYD Protein From Na^+/K^+-ATPase With Novel FXYD Peptide Derivatives: Effects on Doxorubicin Cytotoxicity” (Frontiers in Oncology, 2022).
# Read-outs that look alike come from different tables or passages of the source.
# What was measured:
# [1] = test system: MCF-7 cells; test: XTT cell viability, MCF-7 cells; type: cell-based, human; settings: for IC50: Homo sapiens, MCF7, 48 h, 48 h, XTT, 5 experiments
# Method: (§1) Human pancreatic cancer cells BxPC-3, Panc-1, non-transformed human mammary epithelial MCF-10A cells, and human breast cancer cells MCF-7 and MDA-MB-468 were obtained from the American Type Culture Collection (ATCC, Manassas, VA, USA). The cells were then cultured as previously described ([6], [9], [11]). All cells were used within 20 passages of thawing and were free of mycoplasma contamination as ascertained by mycoplasma PCR detection ([12]).
# (§2) Cell metabolic activity was assayed as described ([14]) by estimating the reduction of XTT (2,3-bis(2-methoxy-4-nitro-5-sulfophenyl)-2H-tetrazolium-5-carboxyanilide), using a commercially available kit (Cell Signaling Technology, Danvers, MA, USA) according to the manufacturer’s instructions. Metabolic activity was used as a surrogate for viability. For each set of experimental groups, we performed 5 experiments with 4 replicates. Caspase-3-like activity is increased through a protease cascade during the early stage of apoptosis ([15]), and we measured activities of Caspase 3/7 (DEVDase) using the caspase fluorogenic substrate (Calbiochem, San Diego, CA, USA) as described ([9]).
# (§3) Results are presented as mean ± standard deviation (SD). The IC50 values for Dox in cell viability studies were calculated by GraphPad Prism. Statistical comparisons were made with a Mann–Whitney test, ANOVA, and repeated-measure ANOVA with Geisser–Greenhouse epsilon correction. p < 0.05 was considered statistically significant.
# (§4) We examined if displacement of WT FXYD3 from Na^+/K^+-ATPase is reflected in viability of cells exposed to FXYD3-pep SKSK with and without co-exposure to Dox for 48 h. The culture medium that contained FXYD3-pep SKSK and Dox was replaced with fresh medium every 24 h.
# [2] = test system: BxPC-3 cells; test: XTT cell viability, BxPC-3 cells; type: cell-based; settings: Homo sapiens, BXPC-3, 48 h, 5 experiments
# Method: as §1, §2, §3, §4
Compound,"Effect of ouabain on Dox-induced cytotoxicity ([1]; 48-h co-exposure with 1 μM Dox, N = 5)","Effect of ouabain alone on cell viability ([1]; 48-h exposure, ouabain 25-150 nM, N = 5)",IC50 ([1]; Dox alone (no peptide)),"IC50 ([1]; co-exposure to 2 µM FXYD3-pep SKSK, read-out: IC50 for Dox, cell viability)",IC50 ([2]; Dox alone (no peptide)),"IC50 ([2]; co-exposure to 1 μM FXYD3-pep SKSK, read-out: IC50 for Dox, cell viability)","IC50 ([2]; co-exposure to 2 μM FXYD3-pep SKSK, read-out: IC50 for Dox, cell viability)"
C[C@@H]1O[C@@H](O[C@H]2C[C@@H](O)[C@]3(CO)[C@H]4[C@H](O)C[C@]5(C)[C@@H](C6=CC(=O)OC6)CC[C@]5(O)[C@@H]4CC[C@]3(O)C2)[C@H](O)[C@H](O)[C@H]1O [ouabain],modest augmentation of Dox-induced cytotoxicity decreased with an increase in ouabain concentration,reduced cell viability in a concentration-dependent manner,–,–,–,–,–
"COc1cccc2c1C(=O)c1c(O)c3c(c(O)c1C2=O)C[C@@](O)(C(=O)CO)C[C@@H]3O[C@H]1C[C@H](N)[C@H](O)[C@H](C)O1 [Dox, doxorubicin]",–,–,~4300 nM,~500 nM,~1740 nM,~400 nM,~300 nM
